Laboratory results published in US20210038753A1, “BIOLOGICAL STERILIZATION INDICATOR WITH STERILANT RESISTANCE MODULATOR” (3M INNOVATIVE PROPERTIES COMPANY, priority 2014, published 2021).

Tests used:
[1] = system: Geobacillus stearothermophilus spores; experiment: Resistance of self-contained biological indicators to hydrogen peroxide sterilization, glucosidase enzyme activity fluorescence readout (ENZ+); format: cell-based
Description: (§1) PET film (.09 mm thick) was coated with colloidal silica as described in International Publication No. WO2014/189716, which is incorporated herein by reference in its entirety. […] Separate aqueous spore coating solutions were prepared as described in Example 1 with the amino acids shown in table 4 present in the coating solutions. Two microliter aliquots (containing at least 10^6 spores) of the respective spore coating solutions were deposited onto the silica-coated PET film, forming a series of spaced-apart spots on the film. The spore coated films were dried in a 60° C. incubator for 12 minutes. Circular discs (hereinafter, “coated carriers”) of the PET film, each disc including one of the dried spots, were punched out and were used to assemble self-contained biological indicators (BI) similar to that shown in FIG. 1 of International Publication No. WO2014/189716. The coated carriers described above were placed into the “spore carrier 135” shown in FIG. 1 of International Publication No. WO2014/189716. Each self-contained BI comprised a polycarbonate outer container, a breaker, a cap, and a cap filter. Disposed inside the outer container were a coated carrier along with an ampoule media containing the nutrient medium from 3M ATTEST 1292 Rapid Readout Biological Indicators plus 5g/L methionine (as described in Example 1).
(§2) The self-contained biological indicators with different concentrations of additives (Table 4) were exposed to hydrogen peroxide sterilization in STERRAD NX sterilizer. The sterilization processes were run by manually injecting 1.0 ml of 59% hydrogen peroxide per load, unless specified otherwise. The exposure time was varied to determine the resistance profile of self-contained BIs with different additive formulations. The BIs were activated by pressing down the cap to break the media ampoule. The activated BIs were placed in a bench-top fluorimeter (3M Company, St. Paul, Minn.) to detect fluorescence.
(§3) A self-contained BI that is not completely inactivated (i.e., not all of the spores are killed by the sterilization process) will resume cellular functions upon activation of the BI. The production of glucosidase enzyme by surviving spores is an indication that at least one of the spores have not been inactivated (killed) by the sterilization process. The glucosidase enzyme cleaves the 4-methylumbelliferyl-glucoside (MUG) releasing the fluorescent methyl umbelliferone, which is detected using a bench-top fluorimeter. Growth and proliferation of spores in the self-contained biological indicator can also be detected by a pH change, which may be detected by a color change of the pH indicator in the growth medium.
(§4) Self-contained biological indicators were prepared (with various additives listed in table 4) as described above in this Example. For each additive tested, a lower range and a higher range was used as a preliminary screen to identify additives modulated the resistance of the spores to the sterilant. Five self-contained BIs representing each condition were exposed to hydrogen peroxide sterilization in STERRAD NX sterilizer. The sterilization processes used a constant injection volume (1.0 ml of 59% hydrogen peroxide) and various times (e.g., 20 seconds to 7 minutes) of exposure to the hydrogen peroxide. The self-contained BIs were activated after exposure to the sterilization process and were monitored for fluorescence using a bench-top fluorimeter) and pH based color change (visually). […]
(§5) Self-contained biological indicators (with various additives listed in table 5) were prepared as described in Example 2. The self-contained biological indicators were exposed to hydrogen peroxide in a STERRAD NX sterilizer as described in Example 2. The self-contained BIs were activated after exposure to the sterilization process and were monitored for fluorescence using a bench-top fluorimeter and pH based color change (visually).

[2] = system: Geobacillus stearothermophilus spores; experiment: Resistance of self-contained biological indicators to hydrogen peroxide sterilization, growth readout by pH colour change (GRO+); format: cell-based
Description: as §1, §2, §3, §4, §5

[3] = Table 4, modulator 0.01 weight percent in spore coating solution, H2O2 exposure 30 sec.
[4] = Table 4, modulator 0.01 weight percent in spore coating solution, H2O2 exposure 60 sec.
[5] = Table 4, modulator 0.01 weight percent in spore coating solution, H2O2 exposure 90 sec.
[6] = Table 4, modulator 0.01 weight percent in spore coating solution, H2O2 exposure 3 min.
[7] = Table 4, modulator 0.01 weight percent in spore coating solution, H2O2 exposure 7 min.
[8] = Table 4, modulator 0.1 weight percent in spore coating solution, H2O2 exposure 30 sec.
[9] = Table 4, modulator 0.1 weight percent in spore coating solution, H2O2 exposure 60 sec.
[10] = Table 4, modulator 0.1 weight percent in spore coating solution, H2O2 exposure 90 sec.
[11] = Table 4, modulator 0.1 weight percent in spore coating solution, H2O2 exposure 3 min.
[12] = Table 4, modulator 0.1 weight percent in spore coating solution, H2O2 exposure 7 min.
[13] = Table 5, modulator 0.05 weight percent in spore coating solution, H2O2 exposure 20 sec.
[14] = Table 5, modulator 0.05 weight percent in spore coating solution, H2O2 exposure 30 sec.
[15] = Table 5, modulator 0.05 weight percent in spore coating solution, H2O2 exposure 60 sec.
[16] = Table 5, modulator 0.05 weight percent in spore coating solution, H2O2 exposure 90 sec.
[17] = Table 5, modulator 0.05 weight percent in spore coating solution, H2O2 exposure 3 min.
[18] = Table 5, modulator 0.05 weight percent in spore coating solution, H2O2 exposure 7 min.
[19] = Table 5, modulator 0.1 weight percent in spore coating solution, H2O2 exposure 20 sec.
[20] = Table 5, modulator 0.1 weight percent in spore coating solution, H2O2 exposure 30 sec.
[21] = Table 5, modulator 0.1 weight percent in spore coating solution, H2O2 exposure 60 sec.
[22] = Table 5, modulator 0.1 weight percent in spore coating solution, H2O2 exposure 90 sec.
[23] = Table 5, modulator 0.1 weight percent in spore coating solution, H2O2 exposure 3 min.
[24] = Table 5, modulator 0.1 weight percent in spore coating solution, H2O2 exposure 7 min.
[25] = Table 5, modulator 0.2 weight percent in spore coating solution, H2O2 exposure 20 sec.
[26] = Table 5, modulator 0.2 weight percent in spore coating solution, H2O2 exposure 30 sec.
[27] = Table 5, modulator 0.2 weight percent in spore coating solution, H2O2 exposure 60 sec.
[28] = Table 5, modulator 0.2 weight percent in spore coating solution, H2O2 exposure 90 sec.
[29] = Table 5, modulator 0.2 weight percent in spore coating solution, H2O2 exposure 3 min.
[30] = Table 5, modulator 0.2 weight percent in spore coating solution, H2O2 exposure 7 min.
[31] = Table 5, modulator 0.4 weight percent in spore coating solution, H2O2 exposure 20 sec.
[32] = Table 5, modulator 0.4 weight percent in spore coating solution, H2O2 exposure 30 sec.
[33] = Table 5, modulator 0.4 weight percent in spore coating solution, H2O2 exposure 60 sec.
[34] = Table 5, modulator 0.4 weight percent in spore coating solution, H2O2 exposure 90 sec.
[35] = Table 5, modulator 0.4 weight percent in spore coating solution, H2O2 exposure 3 min.
[36] = Table 5, modulator 0.4 weight percent in spore coating solution, H2O2 exposure 7 min.
[37] = Table 5, modulator 0.8 weight percent in spore coating solution, H2O2 exposure 20 sec.
[38] = Table 5, modulator 0.8 weight percent in spore coating solution, H2O2 exposure 30 sec.
[39] = Table 5, modulator 0.8 weight percent in spore coating solution, H2O2 exposure 60 sec.
[40] = Table 5, modulator 0.8 weight percent in spore coating solution, H2O2 exposure 90 sec.
[41] = Table 5, modulator 0.8 weight percent in spore coating solution, H2O2 exposure 3 min.
[42] = Table 5, modulator 0.8 weight percent in spore coating solution, H2O2 exposure 7 min.

N=C(N)NCCC[C@H](N)C(=O)O [L-arginine]
percentage of self-contained biological indicators positive for glucosidase enzyme activity (ENZ+) [1, 3]: 80% | percentage of self-contained biological indicators positive for glucosidase enzyme activity (ENZ+) [1, 4]: 60% | percentage of self-contained biological indicators positive for glucosidase enzyme activity (ENZ+) [1, 5]: 0% | percentage of self-contained biological indicators positive for glucosidase enzyme activity (ENZ+) [1, 6]: 0% | percentage of self-contained biological indicators positive for glucosidase enzyme activity (ENZ+) [1, 7]: 0% | percentage of self-contained biological indicators positive for glucosidase enzyme activity (ENZ+) [1, 8]: 80% | percentage of self-contained biological indicators positive for glucosidase enzyme activity (ENZ+) [1, 9]: 0% | percentage of self-contained biological indicators positive for glucosidase enzyme activity (ENZ+) [1, 10]: 0% | percentage of self-contained biological indicators positive for glucosidase enzyme activity (ENZ+) [1, 11]: 0% | percentage of self-contained biological indicators positive for glucosidase enzyme activity (ENZ+) [1, 12]: 0% | percentage of self-contained biological indicators positive for glucosidase enzyme activity (ENZ+) [1, 13]: 100% | percentage of self-contained biological indicators positive for glucosidase enzyme activity (ENZ+) [1, 14]: 100% | percentage of self-contained biological indicators positive for glucosidase enzyme activity (ENZ+) [1, 15]: 67% | percentage of self-contained biological indicators positive for glucosidase enzyme activity (ENZ+) [1, 16]: 0% | percentage of self-contained biological indicators positive for glucosidase enzyme activity (ENZ+) [1, 17]: 0% | percentage of self-contained biological indicators positive for glucosidase enzyme activity (ENZ+) [1, 18]: 0% | percentage of self-contained biological indicators positive for glucosidase enzyme activity (ENZ+) [1, 19]: 100% | percentage of self-contained biological indicators positive for glucosidase enzyme activity (ENZ+) [1, 20]: 100% | percentage of self-contained biological indicators positive for glucosidase enzyme activity (ENZ+) [1, 21]: 33% | percentage of self-contained biological indicators positive for glucosidase enzyme activity (ENZ+) [1, 22]: 0% | percentage of self-contained biological indicators positive for glucosidase enzyme activity (ENZ+) [1, 23]: 0% | percentage of self-contained biological indicators positive for glucosidase enzyme activity (ENZ+) [1, 24]: 0% | percentage of self-contained biological indicators positive for glucosidase enzyme activity (ENZ+) [1, 25]: 100% | percentage of self-contained biological indicators positive for glucosidase enzyme activity (ENZ+) [1, 26]: 100% | percentage of self-contained biological indicators positive for glucosidase enzyme activity (ENZ+) [1, 27]: 33% | percentage of self-contained biological indicators positive for glucosidase enzyme activity (ENZ+) [1, 28]: 0% | percentage of self-contained biological indicators positive for glucosidase enzyme activity (ENZ+) [1, 29]: 0% | percentage of self-contained biological indicators positive for glucosidase enzyme activity (ENZ+) [1, 30]: 0% | percentage of self-contained biological indicators positive for glucosidase enzyme activity (ENZ+) [1, 31]: 100% | percentage of self-contained biological indicators positive for glucosidase enzyme activity (ENZ+) [1, 32]: 100% | percentage of self-contained biological indicators positive for glucosidase enzyme activity (ENZ+) [1, 33]: 0% | percentage of self-contained biological indicators positive for glucosidase enzyme activity (ENZ+) [1, 34]: 0% | percentage of self-contained biological indicators positive for glucosidase enzyme activity (ENZ+) [1, 35]: 0% | percentage of self-contained biological indicators positive for glucosidase enzyme activity (ENZ+) [1, 36]: 0% | percentage of self-contained biological indicators positive for glucosidase enzyme activity (ENZ+) [1, 37]: 100% | percentage of self-contained biological indicators positive for glucosidase enzyme activity (ENZ+) [1, 38]: 67% | percentage of self-contained biological indicators positive for glucosidase enzyme activity (ENZ+) [1, 39]: 0% | percentage of self-contained biological indicators positive for glucosidase enzyme activity (ENZ+) [1, 40]: 0% | percentage of self-contained biological indicators positive for glucosidase enzyme activity (ENZ+) [1, 41]: 0% | percentage of self-contained biological indicators positive for glucosidase enzyme activity (ENZ+) [1, 42]: 0% | sensitivity of the biological indicator to the sterilization process relative to the control with no additives ([2]; Example 2 / Comparative Example 1 (Table 4), fluorescence and growth readouts): increased sensitivity (decreased resistance) | sensitivity of the spores to the damaging/lethal effects of the sterilization process relative to the control with no additives ([2]; Example 3 (Table 5), fluorescence and growth readouts): increased sensitivity | percentage of self-contained biological indicators positive for growth (GRO+) [2, 3]: 100% | percentage of self-contained biological indicators positive for growth (GRO+) [2, 4]: 0% | percentage of self-contained biological indicators positive for growth (GRO+) [2, 5]: 0% | percentage of self-contained biological indicators positive for growth (GRO+) [2, 6]: 0% | percentage of self-contained biological indicators positive for growth (GRO+) [2, 7]: 0% | percentage of self-contained biological indicators positive for growth (GRO+) [2, 8]: 40% | percentage of self-contained biological indicators positive for growth (GRO+) [2, 9]: 0% | percentage of self-contained biological indicators positive for growth (GRO+) [2, 10]: 0% | percentage of self-contained biological indicators positive for growth (GRO+) [2, 11]: 0% | percentage of self-contained biological indicators positive for growth (GRO+) [2, 12]: 0% | percentage of self-contained biological indicators positive for growth (GRO+) [2, 13]: 100% | percentage of self-contained biological indicators positive for growth (GRO+) [2, 14]: 100% | percentage of self-contained biological indicators positive for growth (GRO+) [2, 15]: 0% | percentage of self-contained biological indicators positive for growth (GRO+) [2, 16]: 0% | percentage of self-contained biological indicators positive for growth (GRO+) [2, 17]: 0% | percentage of self-contained biological indicators positive for growth (GRO+) [2, 18]: 0% | percentage of self-contained biological indicators positive for growth (GRO+) [2, 19]: 100% | percentage of self-contained biological indicators positive for growth (GRO+) [2, 20]: 100% | percentage of self-contained biological indicators positive for growth (GRO+) [2, 21]: 0% | percentage of self-contained biological indicators positive for growth (GRO+) [2, 22]: 0% | percentage of self-contained biological indicators positive for growth (GRO+) [2, 23]: 0% | percentage of self-contained biological indicators positive for growth (GRO+) [2, 24]: 0% | percentage of self-contained biological indicators positive for growth (GRO+) [2, 25]: 100% | percentage of self-contained biological indicators positive for growth (GRO+) [2, 26]: 100% | percentage of self-contained biological indicators positive for growth (GRO+) [2, 27]: 0% | percentage of self-contained biological indicators positive for growth (GRO+) [2, 28]: 0% | percentage of self-contained biological indicators positive for growth (GRO+) [2, 29]: 0% | percentage of self-contained biological indicators positive for growth (GRO+) [2, 30]: 0% | percentage of self-contained biological indicators positive for growth (GRO+) [2, 31]: 67% | percentage of self-contained biological indicators positive for growth (GRO+) [2, 32]: 33% | percentage of self-contained biological indicators positive for growth (GRO+) [2, 33]: 0% | percentage of self-contained biological indicators positive for growth (GRO+) [2, 34]: 0% | percentage of self-contained biological indicators positive for growth (GRO+) [2, 35]: 0% | percentage of self-contained biological indicators positive for growth (GRO+) [2, 36]: 0% | percentage of self-contained biological indicators positive for growth (GRO+) [2, 37]: 33% | percentage of self-contained biological indicators positive for growth (GRO+) [2, 38]: 0% | percentage of self-contained biological indicators positive for growth (GRO+) [2, 39]: 0% | percentage of self-contained biological indicators positive for growth (GRO+) [2, 40]: 0% | percentage of self-contained biological indicators positive for growth (GRO+) [2, 41]: 0% | percentage of self-contained biological indicators positive for growth (GRO+) [2, 42]: 0%
